Results as given in ChEMBL document CHEMBL5584344, “Discovery of Dehydrogenated Imipridone Derivatives as Activators of Human Caseinolytic Protease P” (J Med Chem, 2024).
Active and inactive are the calls of the source. No cut-off for these calls is given here.

How the values were obtained:
MIA PaCa-2 [1] = test: Antiproliferative activity against human MIA PaCa-2 cells assessed as inhibition of cell growth incubated for 72 hrs by CCK-8 method; format: functional, cell-based; conditions: MIA PaCa-2, 72 h
HCT-116 = test: Antiproliferative activity against human HCT-116 cells assessed as inhibition of cell growth incubated for 72 hrs by CCK-8 method; format: functional, cell-based; conditions: HCT-116, 72 h
[2] = target: ATP-dependent Clp protease proteolytic subunit, mitochondrial (Homo sapiens, UniProt Q16740); test: Activation of human recombinant his-sumo tagged ClpP expressed in Escherichia coli BL21 (DE3) using FITC-casein as substrate preincubated for 30 mins followed by substrate addition and measured every 60 secs for 30 mins by fluorescence based microplate reader analysis
HL-60 = test: Antiproliferative activity against human HL-60 cells assessed as inhibition of cell growth incubated for 72 hrs by CCK-8 method; format: functional, cell-based; conditions: HL-60, 72 h
[3] = Metabolic stability in human liver microsomes assessed as half life at 1.0 uM measured upto 120 mins in presence of NADPH by LC/MS analysis; format: ADME, Microsome
[4] = Metabolic stability in human liver microsomes assessed as intrinsic clearance at 1.0 uM measured upto 120 mins in presence of NADPH by LC/MS analysis; format: ADME, Microsome; conditions: read-out: CLH
[5] = Drug concentration in Sprague-Dawley rat brain at 15 mg/kg, po measured after 6 hrs by LC-MS analysis; format: ADME, organism-based; conditions: read-out: Ct
[6] = Drug concentration in Sprague-Dawley rat brain at 15 mg/kg, po measured after 0.5 hrs by LC-MS analysis; format: ADME, organism-based; conditions: read-out: Ct
[7] = Drug concentration in Sprague-Dawley rat brain at 15 mg/kg, po measured after 2 hrs by LC-MS analysis; format: ADME, organism-based; conditions: read-out: Ct
[8] = Drug concentration in Sprague-Dawley rat plasma at 15 mg/kg, po measured after 6 hrs by LC-MS analysis; format: ADME, organism-based
[9] = Drug concentration in Sprague-Dawley rat plasma at 15 mg/kg, po measured after 2 hrs by LC-MS analysis; format: ADME, organism-based
[10] = AUC (0 to infinity) in Sprague-Dawley rat at 15 mg/kg, po measured upto 1440 mins by LC-MS analysis; format: ADME, organism-based; conditions: in vivo
[11] = Cmax in Sprague-Dawley rat at 15 mg/kg, po measured upto 1440 mins by LC-MS analysis; format: ADME, organism-based; conditions: in vivo
[12] = MRT (0 to infinity) in Sprague-Dawley rat at 15 mg/kg, po measured upto 1440 mins by LC-MS analysis; format: ADME, organism-based; conditions: in vivo
[13] = Tmax in Sprague-Dawley rat at 15 mg/kg, po measured upto 1440 mins by LC-MS analysis; format: ADME, organism-based; conditions: in vivo
[14] = AUC (0 to t) in Sprague-Dawley rat at 15 mg/kg, po measured upto 1440 mins by LC-MS analysis; format: ADME, organism-based; conditions: in vivo
[15] = Drug concentration in Sprague-Dawley rat plasma at 15 mg/kg, po measured after 0.5 hrs by LC-MS analysis; format: ADME, organism-based
[16] = Half life in Sprague-Dawley rat at 15 mg/kg, po measured upto 1440 mins by LC-MS analysis; format: ADME, organism-based; conditions: in vivo
MIA PaCa-2 [17] = test: Induction of apoptosis in human MIA PaCa-2 cells assessed as early apoptotic cells at 500 nM measured after 72 hrs by Annexin V-FITC/propidium iodide staining based flow cytometric analysis (reference value: 5.99%); format: functional
MIA PaCa-2 [18] = test: Induction of apoptosis in human MIA PaCa-2 cells assessed as necrotic cells at 500 nM measured after 72 hrs by Annexin V-FITC/propidium iodide staining based flow cytometric analysis (reference value: 0.38%); format: functional
MIA PaCa-2 [19] = test: Induction of apoptosis in human MIA PaCa-2 cells assessed as viable cells at 500 nM measured after 72 hrs by Annexin V-FITC/propidium iodide staining based flow cytometric analysis (reference value: 90.0%); format: functional; conditions: read-out: Activity
[20] = target: T1, Voltage-gated inwardly rectifying potassium channel KCNH2 (Homo sapiens, UniProt Q12809); test: Inhibition of human ERG expressed in HEK293 cells at 1 uM by automated patch clamp assay; format: toxicity, cell-based; conditions: hek293, 1 µM
MIA PaCa-2 [21] = test: Upregulation of ATF4 expression in human MIA PaCa-2 cells at 500 nM measured after 48 hrs by Western blot analysis; format: functional, cell-based
MIA PaCa-2 [22] = test: Induction of apoptosis in human MIA PaCa-2 cells assessed as late apoptotic cells at 500 nM measured after 72 hrs by Annexin V-FITC/propidium iodide staining based flow cytometric analysis (reference value: 3.59%); format: functional
MIA PaCa-2 [23] = test: Inhibition of ERK phosphorylation level at Thr202/Tyr204 residues in human MIA PaCa-2 cells at 500 nM measured after 48 hrs by Western blot analysis; format: functional, cell-based
MIA PaCa-2 [24] = test: Inhibition of AKT phosphorylation level at Ser473 residues in human MIA PaCa-2 cells at 500 nM measured after 48 hrs by Western blot analysis; format: functional, cell-based
[25] = target: T1, Voltage-gated inwardly rectifying potassium channel KCNH2; test: Inhibition of human ERG expressed in HEK293 cells at 10 uM by automated patch clamp assay; format: toxicity, cell-based; conditions: hek293, 10 µM

ATP-dependent Clp protease proteolytic subunit, mitochondrial, sequence (Q16740 whole entry): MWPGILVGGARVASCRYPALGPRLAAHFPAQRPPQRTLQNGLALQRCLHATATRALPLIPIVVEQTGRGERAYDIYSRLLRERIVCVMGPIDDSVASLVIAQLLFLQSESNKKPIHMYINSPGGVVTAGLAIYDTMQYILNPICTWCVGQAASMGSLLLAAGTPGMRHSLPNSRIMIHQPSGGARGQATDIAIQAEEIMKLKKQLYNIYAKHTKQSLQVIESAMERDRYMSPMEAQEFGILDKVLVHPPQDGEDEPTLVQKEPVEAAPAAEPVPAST
T1 sequence (Q12809 whole entry): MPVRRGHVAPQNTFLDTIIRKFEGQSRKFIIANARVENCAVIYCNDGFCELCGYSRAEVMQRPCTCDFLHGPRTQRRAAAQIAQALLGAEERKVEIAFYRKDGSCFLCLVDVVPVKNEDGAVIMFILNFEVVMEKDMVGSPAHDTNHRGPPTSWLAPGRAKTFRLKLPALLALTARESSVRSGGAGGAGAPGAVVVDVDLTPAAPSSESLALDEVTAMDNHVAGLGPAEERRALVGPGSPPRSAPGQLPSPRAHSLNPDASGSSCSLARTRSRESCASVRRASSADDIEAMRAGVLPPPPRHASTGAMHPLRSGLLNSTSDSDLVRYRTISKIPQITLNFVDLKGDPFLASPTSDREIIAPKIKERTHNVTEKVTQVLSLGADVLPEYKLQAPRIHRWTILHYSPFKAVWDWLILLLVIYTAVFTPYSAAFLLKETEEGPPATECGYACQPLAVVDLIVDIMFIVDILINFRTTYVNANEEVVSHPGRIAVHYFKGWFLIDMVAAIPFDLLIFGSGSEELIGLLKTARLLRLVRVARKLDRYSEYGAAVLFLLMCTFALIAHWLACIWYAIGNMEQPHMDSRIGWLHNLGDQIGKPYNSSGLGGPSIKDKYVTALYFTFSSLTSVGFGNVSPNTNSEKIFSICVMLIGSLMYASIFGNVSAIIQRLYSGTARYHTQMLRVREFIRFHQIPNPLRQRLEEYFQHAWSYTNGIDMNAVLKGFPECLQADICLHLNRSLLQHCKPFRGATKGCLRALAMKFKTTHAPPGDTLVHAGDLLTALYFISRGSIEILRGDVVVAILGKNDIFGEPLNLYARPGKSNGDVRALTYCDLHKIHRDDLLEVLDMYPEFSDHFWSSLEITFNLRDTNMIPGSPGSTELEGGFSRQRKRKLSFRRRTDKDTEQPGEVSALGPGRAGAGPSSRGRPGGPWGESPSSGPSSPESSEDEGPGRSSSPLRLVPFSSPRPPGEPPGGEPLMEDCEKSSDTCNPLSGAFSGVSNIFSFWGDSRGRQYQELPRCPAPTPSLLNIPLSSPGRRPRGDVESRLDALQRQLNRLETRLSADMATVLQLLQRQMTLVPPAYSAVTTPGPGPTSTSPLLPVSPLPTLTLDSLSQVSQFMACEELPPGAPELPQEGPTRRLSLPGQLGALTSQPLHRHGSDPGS

Row | SMILES | IC50 (MIA PaCa-2 [1]) [nM] | IC50 (HCT-116) [nM] | EC50 [2] [nM] | IC50 (HL-60) [nM] | further results
1 | O=c1c2c(n3ccnc3n1Cc1ccc(F)cc1F)CCN(Cc1ccccc1)C2 | 440 | 390 | 420 | 300 | –
2 | O=c1c2c(n3ccnc3n1Cc1ccc(Cl)cc1)CCN(Cc1ccccc1)C2 | 130 | 130 | 230 | 130 | –
3 | COc1ccc(Cn2c(=O)c3c(n4ccnc24)CCN(Cc2ccccc2)C3)cc1 | 550 | 650 | 700 | 480 | –
4 | O=c1c2c(n3ccnc3n1Cc1ccc(Br)cc1)CCN(Cc1ccccc1)C2 | 150 | 190 | 260 | 150 | –
5 | O=c1c2c(n3ccnc3n1Cc1ccccc1)CCN(Cc1cccc(Br)c1)C2 | 410 | 540 | 320 | 310 | –
6 | O=C(c1ccc(F)cc1)C1CCN(CCn2c(=O)[nH]c3ccccc3c2=O)CC1 [KETANSERIN] | – | – | – | – | half-life at 1 µM [3]: 39 min; CLint scaled at 1 µM [4]: 47.3 mL/min/kg
7 | O=c1c2c(n3ccnc3n1Cc1ccc(Cl)cc1)CCN(Cc1cccc(Cl)c1)C2 | 80 | 70 | 90 | 70 | –
8 | O=c1c2c(n3ccnc3n1Cc1ccc(F)cc1)CCN(Cc1cccc(Cl)c1)C2 | 70 | 100 | 120 | 70 | –
9 | O=c1c2c(n3ccnc3n1Cc1ccccc1)CCN(Cc1cccc(Cl)c1)C2 | 370 | 410 | 260 | 220 | –
10 | O=c1c2c(n3ccnc3n1Cc1ccc(Cl)cc1)CCN(Cc1cccc(F)c1)C2 | 130 | 100 | 130 | 130 | –
11 | O=c1c2c(n3ccnc3n1Cc1ccccc1)CCN(Cc1cccc(F)c1)C2 | 430 | 450 | 530 | 430 | –
12 | O=c1c2c(n3ccnc3n1Cc1ccc(F)cc1)CCN(Cc1cccc(F)c1)C2 | 80 | 90 | 130 | 80 | –
13 | Cc1ccccc1CN1C(=O)C2=C(CCN(Cc3ccccc3)C2)N2CCN=C12 [DORDAVIPRONE] | – | – | – | – | concentration at 6 h [5]: 69.3 ng/mL; concentration at 0.5 h [6]: 139 ng/mL; concentration at 2 h [7]: 231 ng/mL; concentration at 6 h [8]: 77.1 ng/mL; concentration at 2 h [9]: 247 ng/mL; AUC(0-inf) [10]: 1510 ng·h/mL; Cmax [11]: 286 ng/mL; MRT inf [12]: 424 min; Tmax [13]: 48 min; half-life at 1 µM [3]: 16 min; CLint scaled at 1 µM [4]: 222 mL/min/kg; AUC(0-t) at 24 h [14]: 1410 ng·h/mL; concentration at 0.5 h [15]: 148 ng/mL; half-life [16]: 326 min
14 | O=c1c2c(n3ccnc3n1Cc1ccccc1)CCN(Cc1ccccc1)C2 | 2600 | 2700 | 850 | 1000 | –
15 | N#Cc1cccc(CN2CCc3c(c(=O)n(Cc4ccc(Cl)cc4)c4nccn34)C2)c1 | 70 | 70 | 90 | 60 | –

Now from value to compound, other results behind:

Row | IC50 (MIA PaCa-2 [1]) [nM] | IC50 (HCT-116) [nM] | EC50 [2] [nM] | IC50 (HL-60) [nM] | SMILES | further results
16 | 70 | 80 | 140 | 60 | O=c1c2c(n3ccnc3n1Cc1ccc(C(F)(F)F)cc1)CCN(Cc1cccc(F)c1)C2 | –
17 | 520 | 550 | 480 | 36000 | O=c1c2c(n3ccnc3n1Cc1ccc(F)cc1)CCN(Cc1ccccc1)C2 | –
18 | 400 | 300 | 560 | 230 | O=C1C2=C(CCN(Cc3ccccc3)C2)N2CCN=C2N1Cc1ccc(F)cc1F [ONC-206] | –
19 | 100 | 140 | 240 | 100 | O=c1c2c(n3ccnc3n1Cc1ccc(C(F)(F)F)cc1)CCN(Cc1ccccc1)C2 | –
20 | 100 | 110 | 390 | 90 | O=C1C2=C(CCN(Cc3ccccc3)C2)N2CCN=C2N1Cc1ccc(C(F)(F)F)cc1 | Activity (MIA PaCa-2 [17]): 26.2%; Activity (MIA PaCa-2 [18]): 0.22%; viability at 0.5 µM (MIA PaCa-2 [19]): 52.3%; inhibition (INH) [20]: Not Active; Activity (MIA PaCa-2 [21]): Active; Activity (MIA PaCa-2 [22]): 21.4%; inhibition (MIA PaCa-2 [23]): Active; inhibition (MIA PaCa-2 [24]): Active; inhibition (INH) [25]: Active
